Test results taken from patent publication US20050004024A1, “Methods of treating Pin1 associated disorders by covalent modification of active site residues” (PINTEX PHARMACEUTICALS, INC., priority 2003, published 2005).

Molecular target: Pin1 (Homo sapiens, UniProt Q13526)
Test: Time dependent inactivation of Pin1 (pre-incubation, then protease coupled Pin1 assay)
Assay type: biochemical
Settings: 7.4 uM Pin1 incubated with 200 uM compound, 1% DMF, 35 mM hepes pH 7.8; aliquots diluted to 1 nM Pin1; FIG. 2
Protocol: Pin1 was incubated with Fred-A to determine the effect on peptidyl prolyl isomerase activity.
(§1) A solution containing 7.4 uM Pin1, 100 uM juglone 1% DMF, in 35 mM hepes pH 7.8 was incubated. At various time points, aliquots were removed and diluted into assay buffer containing 1 nM Pin1, 13.5 nM juglone, 0.1 mg/ml BSA, 0.2 mM DTT, and 35 mM Hepes pH 7.8. Pin1 activity was measured by using a protease coupled Pin1 assay.
Aliquots of the incubation mixtures were diluted 7,200 fold into assay buffer (0.1 mg/mL BSA, 0.2 mM DTT and 35 mM Hepes pH 7.8) to a final Pin1 concentration of 1 nM. 20 uL of a 0.4 mg/mL trypsin solution in 35 mM Hepes pH 7.8 was added to 1.2 mL Pin1 solution. The enzymatic reaction was initiated by the addition of 3 uL the substrate solution (15/mg/mL of Ac-Ala-Ala-(PO3)Ser-Pro-Arg-pNA dissolved in a solution of 0.5 M LiCl in trifluroethanol). The reaction progress was monitored at 390 nm for 8 minutes at 4° C.
as §1, with “200” for “100”, “27” for “13.5”, “as described above for juglone.” for “by using a protease coupled Pin1 assay.”

Pin1, sequence (Q13526 whole entry): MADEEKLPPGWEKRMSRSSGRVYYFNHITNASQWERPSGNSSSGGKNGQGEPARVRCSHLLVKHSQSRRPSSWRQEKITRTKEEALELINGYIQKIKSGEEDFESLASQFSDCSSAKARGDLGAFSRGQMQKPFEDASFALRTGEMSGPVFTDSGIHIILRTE

Fredericamycin A [Fred-A]
effect on peptidyl prolyl isomerase activity / covalent modification of Pin1: modified in a manner consistent with covalent modification of the active site
